# Results published in patent US20250066286A1, “COMPOSITIONS OF (Z)-ENDOXIFEN AND METHODS OF ENRICHMENT THEREOF” (Atossa Therapeutics, Inc., priority 2022, published 2025).
# Like-named read-outs stand apart in the source and are kept apart here.
# Tests used:
# [1] = Solvent mixture solubility tests of (Z)-endoxifen; type: physicochemical; settings: for Solubility HT (40 mg/mL): Sol. HT / solubility: high temperature; for Solubility HT (40 mg/mL): Re-PPT: on cooling; for solubility: thermodynamic from solid
# Description: To test the solubility of (Z)-endoxifen in varying conditions, 10 mg of (Z)-endoxifen was added to a stoppered tube, and 0.01 ml of the selected solvent was added (1000 mg/ml solution). The tube was shaken vigorously for 1 minute and then incubated at a constant temperature of 25.0° C. for 15 minutes. If the solid was not completed dissolved, the tube was shaken again and placed at the constant temperature of 25.0° C. for another 15 minutes. If the solid was completely dissolved at this step, it was considered to be very soluble in the selected solvent system. If the solid was not dissolved by this step, another 0.09 ml was added (yielding a 100 mg/ml solution) and an attempt to further dissolve the solid was made by the same steps of shaking and incubating twice over as described previously. If the solid was completely dissolved at this step, it was considered freely soluble. If the solid was not dissolved by this step another 0.2 ml was added (yielding a 33.3 mg/ml solution) and an attempt to further dissolve the solid was made by the same steps of shaking and incubating twice over as described previously. If the solid was completely dissolved at this step, it was considered soluble. If the solid was not dissolved by this step another, 0.7 ml was added (yielding a 10 mg/ml solution) and an attempt to further dissolve the solid was made by the same steps of shaking and incubating twice over as described previously. If the solid was completely dissolved at this step, it was considered sparingly soluble. If the solid was not dissolved by this step the sample was considered to be slightly soluble or very slightly soluble and the solution was heated until the boiling point of the solvent system (max 100° C.) under stirring with a rate of 0.5° C. per minute temperature ramp rate to verify the solubility at high temperatures. The hot solution was after cooled to room temperature with a cooling rate of 0.5° C. per minute to verify if the sample had precipitated after up to 18 hours under magnetic stirring. The same procedure was also used for the solvent mixture solubility tests. The concentrations investigated for the solvent mixture stability were 40 mg/ml and 100 mg/ml. Some solutions in the following example were precipitated by cooling of the solution from a temperature between 50-100° C. to between 10-25° C. at a rate ranging from −0.2 to −0.5° C./minute resulting in a precipitate.
# [2] = (Z)-Endoxifen recovery by solvent evaporation (XRPD); type: physicochemical
# Description: For the single-solvent evaporations, 10 mg (Z)-endoxifen was dissolved in 1 ml of various solvents in which (Z)-endoxifen has >1000 mg/ml solubility (“very soluble”), 100-1000 mg/ml solubility (“freely soluble”), 33-100 mg/ml solubility (“soluble”), and 10-33 mg/ml solubility (“sparingly soluble”). The solutions were stirred for approximately 60 minutes, then left to evaporate. Following (Z)-endoxifen dissolution to a concentration of 10 mg/ml, all solvents generated clear solutions in which the (Z)-endoxifen completely dissolved. The solutions were evaporated at either room temperature (17-25° C.) or elevated temperature (40-60° C.). All evaporations were performed at 1 atmosphere pressure. The solids obtained from the evaporations were analyzed by XRPD.
# For the multi-solvent evaporations, 40 mg (Z)-endoxifen was dissolved in either ethanol/water or THF/acetone mixtures. For the water/ethanol evaporations, 20 ml of 70/30 ethanol/water (v/v) mixtures (achieving concentrations of 2 mg/ml (Z)-endoxifen). The white suspensions were incubated for 3 days at 50° C., yielding clear solutions which were then left to evaporate at elevated temperatures. These analyses were repeated over 4 replicates. For the THF/acetone evaporations, 60 mg (Z)-endoxifen were dissolved in 1.5 ml of a multi-solvent system containing tetrahydrofuran (THF) and acetone in a 40/60 (v/v) mixture. The resultant clear solution was filtered and left to evaporate at room temperature.
# [3] = ethyl acetate/tetrahydrofuran 95/5 v/v, 40 mg/mL
# [4] = heptane/2-propanol 50/50 v/v, 40 mg/mL
smiles,measurement,setting,value
"CC/C(=C(\c1ccc(O)cc1)c1ccc(OCCNC)cc1)c1ccccc1 [(Z)-endoxifen, (Z)-4-(1-(4-(2-(methylamino)ethoxy)phenyl)-2-phenylbut-1-enyl)phenol]",Solubility HT (40 mg/mL): Cloudy point,[1]; [3],51.3 °C
same,Solubility HT (40 mg/mL): Sol. HT,[1]; [3],YES
same,Solubility HT (40 mg/mL): Re-PPT,[1]; [3],YES
same,solubility,"[1]; heptane/2-propanol 50/50 v/v, organic solvent or mixture, heptane/2-propanol 50/50 v/v, 100 mg/mL, read-out: Solubility HT (100 mg/mL): Sol. HT",< 100 mg/mL
same,Solubility HT (40 mg/mL): Clear point,[1]; [4],64.5 °C
same,Solubility HT (40 mg/mL): Cloudy point,[1]; [4],33.7 °C
same,Solubility HT (40 mg/mL): Sol. HT,[1]; [4],YES
same,Solubility HT (40 mg/mL): Re-PPT,[1]; [4],YES
same,solubility,"[1]; heptane/2-propanol (50/50 v/v), organic solvent or mixture, heptane/2-propanol (50/50 v/v), precipitated during cooling, read-out: Solubility",40 mg/mL
same,solubility,"[1]; heptane/ethyl acetate 50/50 v/v, organic solvent or mixture, heptane/ethyl acetate 50/50 v/v, 40 mg/mL, read-out: Solubility HT (40 mg/mL): Sol. HT",< 40 mg/mL
same,solubility,"[1]; heptane/ethyl acetate 50/50 v/v, organic solvent or mixture, heptane/ethyl acetate 50/50 v/v, 100 mg/mL, read-out: Solubility HT (100 mg/mL): Sol. HT",< 100 mg/mL
same,solubility,"[1]; heptane/ethyl acetate (50/50 v/v), organic solvent or mixture, heptane/ethyl acetate (50/50 v/v), read-out: Solubility",< 40 mg/mL
same,solubility,"[1]; heptane/toluene 50/50 v/v, organic solvent or mixture, heptane/toluene 50/50 v/v, 40 mg/mL, read-out: Solubility HT (40 mg/mL): Sol. HT",< 40 mg/mL
same,solubility,"[1]; heptane/toluene 50/50 v/v, organic solvent or mixture, heptane/toluene 50/50 v/v, 100 mg/mL, read-out: Solubility HT (100 mg/mL): Sol. HT",< 100 mg/mL
same,solubility,"[1]; heptane/toluene (50/50 v/v), organic solvent or mixture, heptane/toluene (50/50 v/v), read-out: Solubility",< 40 mg/mL
same,solubility,"[1]; water/2-propanol 50/50 v/v, aqueous with cosolvent or surfactant or cyclodextrin, water/2-propanol 50/50 v/v, 40 mg/mL, read-out: Solubility HT (40 mg/mL): Sol. HT",< 40 mg/mL
same,solubility,"[1]; water/2-propanol 50/50 v/v, aqueous with cosolvent or surfactant or cyclodextrin, water/2-propanol 50/50 v/v, 100 mg/mL, read-out: Solubility HT (100 mg/mL): Sol. HT",< 100 mg/mL
same,solubility,"[1]; water/2-propanol (50/50 v/v), aqueous with cosolvent or surfactant or cyclodextrin, water/2-propanol (50/50 v/v), read-out: Solubility",< 40 mg/mL
same,solubility,"[1]; water/THF (50/50 v/v), aqueous with cosolvent or surfactant or cyclodextrin, water/THF (50/50 v/v), read-out: Solubility",< 40 mg/mL
same,solubility,"[1]; water/acetonitrile 50/50 v/v, aqueous with cosolvent or surfactant or cyclodextrin, water/acetonitrile 50/50 v/v, 40 mg/mL, read-out: Solubility HT (40 mg/mL): Sol. HT",< 40 mg/mL
same,solubility,"[1]; water/acetonitrile 50/50 v/v, aqueous with cosolvent or surfactant or cyclodextrin, water/acetonitrile 50/50 v/v, 100 mg/mL, read-out: Solubility HT (100 mg/mL): Sol. HT",< 100 mg/mL
same,solubility,"[1]; water/acetonitrile (50/50 v/v), aqueous with cosolvent or surfactant or cyclodextrin, water/acetonitrile (50/50 v/v), read-out: Solubility",< 40 mg/mL
same,solubility,"[1]; water/tetrahydrofuran 95/5 v/v, aqueous with cosolvent or surfactant or cyclodextrin, water/tetrahydrofuran 95/5 v/v, 40 mg/mL, read-out: Solubility HT (40 mg/mL): Sol. HT",< 40 mg/mL
same,solubility,"[1]; water/tetrahydrofuran 95/5 v/v, aqueous with cosolvent or surfactant or cyclodextrin, water/tetrahydrofuran 95/5 v/v, 100 mg/mL, read-out: Solubility HT (100 mg/mL): Sol. HT",< 100 mg/mL
same,Output Main phase [phase],"[2]; EVHT: butyl acetate, 10 mg/mL, evaporation at 60° C.",Form I
same,Output Main phase [phase],"[2]; EVHT: dimethylformamide, 10 mg/mL, evaporation at 60° C.",amorphous
same,Output Main phase [phase],"[2]; EVHT: ethanol/water 70/30 v/v, 2 mg/mL, evaporation at 60° C. (4 replicates)",amorphous
same,Output Main phase [phase],"[2]; EVHT: methyl isobutyl ketone, 10 mg/mL, evaporation at 60° C.",amorphous
same,Output Main phase [phase],"[2]; EVHT: toluene, 10 mg/mL, evaporation at 60° C.",amorphous
same,Output Main phase [phase],"[2]; EVRT: 2-propanol, 10 mg/mL, evaporation at RT",Form IV
same,Output Main phase [phase],"[2]; EVRT: acetone, 10 mg/mL, evaporation at RT",Form I
same,Output Main phase [phase],"[2]; EVRT: acetonitrile, 10 mg/mL, evaporation at RT",Form I
same,Output Main phase [phase],"[2]; EVRT: ethyl acetate, 10 mg/mL, evaporation at RT",Form I
same,Output Main phase [phase],"[2]; EVRT: methanol, 10 mg/mL, evaporation at RT",Form I
same,Output Main phase [phase],"[2]; EVRT: tetrahydrofuran/acetone 40/60 v/v, 40 mg/mL, evaporation at RT",Form I
